Read-outs that look alike come from different tables or passages of the source.
What was measured:
CD8 co-receptor = details: With-A
Procedure: The Analysis was performed by flow cytometry, using fluorescence intensity histograms, which allowed us to identify three regions: expression negative, low and high.

[1] = system: antibodies against Newcastle; details: 10 ng/dose with Newcastle vaccine
BMK-16myc cells tumor = details: for Metastases (animals with detected metastases/total number of animals): Tumor + IMMP
Description: We used BMK-16myc cells which are baby mouse kidney cells immortalized with genes of 16 protein of the human papilloma virus (HPV) and the myc gene, which grow in mouse, are highly invasive and produce metastases rapidly. One million cells were implanted subcutaneously in the back of each mouse. […] Subsequently, the animals were sacrificed and the tumors under the back skin as well as thymus, spleen, liver and kidney were collected for histopathological examination.

With Peptide LEDGPKFL + Zinc [IMMP] the “Expression Intensity of CD8, Fluorescence, Negative” value (“Expression Intensity … Negative” below) (CD8 co-receptor; [IMMP] 10^−10 M) was 4.1 ± 0.4 arbitrary fluorescence intensity units, the “Expression Intensity of CD8, Fluorescence, High” value (CD8 co-receptor; [IMMP] 10^−11 M) was 196.1 ± 5.4 arbitrary fluorescence intensity units and the “Expression Intensity of CD8, Fluorescence, Low” value (CD8 co-receptor; [IMMP] 10^−11 M) was 56.5 ± 4.0 arbitrary fluorescence intensity units. For the same substance, the “Expression Intensity … Negative” value (CD8 co-receptor; [IMMP] 10^−11 M) was 3.5 ± 0.1 arbitrary fluorescence intensity units, the “Expression Intensity of CD8, Fluorescence, High” value (CD8 co-receptor; [IMMP] 10^−12 M) was 194.1 ± 7.3 arbitrary fluorescence intensity units and the “Expression Intensity of CD8, Fluorescence, Low” value (CD8 co-receptor; [IMMP] 10^−12 M) was 58.1 ± 3.2 arbitrary fluorescence intensity units. For the same substance, the “Expression Intensity … Negative” value (CD8 co-receptor; [IMMP] 10^−12 M) was 2.0 ± 0.4 arbitrary fluorescence intensity units, the “Antibody production against Newcastle (number of times the serum could be diluted with 100% of the response)” value ([1]; Day 13) was 0 and the “Antibody production against Newcastle (number of times the serum could be diluted with 100% of the response)” value ([1]; Day 23) was 18.0. The “Antibody production against Newcastle (number of times the serum could be diluted with 100% of the response)” value ([1]; Day 30) was 64.5, the “Antibody production against Newcastle (number of times the serum could be diluted with 100% of the response)” value ([1]; Day 37) was 60.2 and the “Metastases (animals with detected metastases/total number of animals)” value (BMK-16myc cells tumor; Kidney) was 0/5. The “Metastases (animals with detected metastases/total number of animals)” value (BMK-16myc cells tumor; Liver) was 3/5, the “Metastases (animals with detected metastases/total number of animals)” value (BMK-16myc cells tumor; Spleen, 200 ng Kg i.p., 10 doses) was 0/5 and the “Metastases (animals with detected metastases/total number of animals)” value (BMK-16myc cells tumor; Thymus) was 0/5. For the same substance, the “Animals in which development of metastasis was reduced” value (BMK-16myc cells tumor; mouse, in vivo) was 40%, the “Tumor size vs untreated group” value (BMK-16myc cells tumor; tendency to smaller tumors) was “not statistically significant” and the “Animals with metastases in liver” value (BMK-16myc cells tumor; tumor + IMMP (100% untreated)) was 60%. The “Body weight (control percent)” value (LR.4 lymphoma; IMMP alone, no tumor, week 0) was 100 ± 2%, the “Survival (percent of live animals)” value (LR.4 lymphoma; IMMP alone, no tumor, week 0) was 100% and the “Body weight (control percent)” value (LR.4 lymphoma; IMMP alone, no tumor, week 1) was 100 ± 4%. The “Survival (percent of live animals)” value (LR.4 lymphoma; IMMP alone, no tumor, week 1) was 100%, the “Body weight (control percent)” value (LR.4 lymphoma; IMMP alone, no tumor, week 2) was 100 ± 5% and the “Survival (percent of live animals)” value (LR.4 lymphoma; IMMP alone, no tumor, week 2) was 100%. For the same substance, the “Body weight (control percent)” value (LR.4 lymphoma; IMMP alone, no tumor, week 3) was 100 ± 3%, the “Survival (percent of live animals)” value (LR.4 lymphoma; IMMP alone, no tumor, week 3) was 100% and the “Body weight (control percent)” value (LR.4 lymphoma; IMMP alone, no tumor, week 4) was 100 ± 3%. For the same substance, the “Survival (percent of live animals)” value (LR.4 lymphoma; IMMP alone, no tumor, week 4) was 100%, the “Body weight (control percent)” value (LR.4 lymphoma; IMMP alone, no tumor, week 5) was 100 ± 4% and the “Survival (percent of live animals)” value (LR.4 lymphoma; IMMP alone, no tumor, week 5) was 100%. The “Body weight (control percent)” value (LR.4 lymphoma; IMMP alone, no tumor, week 6) was 100 ± 3%, the “Survival (percent of live animals)” value (LR.4 lymphoma; IMMP alone, no tumor, week 6) was 100% and the “Body weight (control percent)” value (LR.4 lymphoma; IMMP alone, no tumor, week 7) was 100 ± 5%. The “Survival (percent of live animals)” value (LR.4 lymphoma; IMMP alone, no tumor, week 7) was 100%, the “Survival (percent of live animals)” value (LR.4 lymphoma; IMMP alone, no tumor, week 8) was 100% and the “Survival (percent of live animals)” value (LR.4 lymphoma; IMMP alone, no tumor, week 9) was 100%. The “Survival (percent of live animals)” value (LR.4 lymphoma; IMMP alone, no tumor, week 10) was 100%, the “Survival (percent of live animals)” value (LR.4 lymphoma; IMMP alone, no tumor, week 11) was 100% and the “Survival (percent of live animals)” value (LR.4 lymphoma; IMMP alone, no tumor, week 12) was 100%. For the same substance, the “Survival (percent of live animals)” value (LR.4 lymphoma; IMMP alone, no tumor, week 13) was 100%, the “Survival (percent of live animals)” value (LR.4 lymphoma; IMMP alone, no tumor, week 14) was 100% and the “Body weight (control percent)” value (LR.4 lymphoma; LR.4 + IMMP, week 0) was 100 ± 2%. For the same substance, the “Survival (percent of live animals)” value (LR.4 lymphoma; LR.4 + IMMP, week 0) was 100%, the “Body weight (control percent)” value (LR.4 lymphoma; LR.4 + IMMP, week 1) was 101 ± 4% and the “Survival (percent of live animals)” value (LR.4 lymphoma; LR.4 + IMMP, week 1) was 100%. For the same substance, the “Body weight (control percent)” value (LR.4 lymphoma; LR.4 + IMMP, week 2) was 116 ± 6 %, the “Survival (percent of live animals)” value (LR.4 lymphoma; LR.4 + IMMP, week 2) was 100% and the “Body weight (control percent)” value (LR.4 lymphoma; LR.4 + IMMP, week 3) was 125 ± 8 %. For the same substance, the “Survival (percent of live animals)” value (LR.4 lymphoma; LR.4 + IMMP, week 3) was 100%, the “Body weight (control percent)” value (LR.4 lymphoma; LR.4 + IMMP, week 4) was 126 ± 8 % and the “Survival (percent of live animals)” value (LR.4 lymphoma; LR.4 + IMMP, week 4) was 100%. The “Body weight (control percent)” value (LR.4 lymphoma; LR.4 + IMMP, week 5) was 154 ± 11 %, the “Survival (percent of live animals)” value (LR.4 lymphoma; LR.4 + IMMP, week 5) was 100% and the “Body weight (control percent)” value (LR.4 lymphoma; LR.4 + IMMP, week 6) was 152 ± 12 %. For the same substance, the “Survival (percent of live animals)” value (LR.4 lymphoma; LR.4 + IMMP, week 6) was 100%, the “Body weight (control percent)” value (LR.4 lymphoma; LR.4 + IMMP, week 7) was 150 ± 11 % and the “Survival (percent of live animals)” value (LR.4 lymphoma; LR.4 + IMMP, week 7) was 100%. The “Survival (percent of live animals)” value (LR.4 lymphoma; LR.4 + IMMP, week 8) was 100%, the “Survival (percent of live animals)” value (LR.4 lymphoma; LR.4 + IMMP, week 9) was 67% and the “Survival (percent of live animals)” value (LR.4 lymphoma; LR.4 + IMMP, week 10) was 50%. The “Survival (percent of live animals)” value (LR.4 lymphoma; LR.4 + IMMP, week 11) was 34%, the “Survival (percent of live animals)” value (LR.4 lymphoma; LR.4 + IMMP, week 12) was 16% and the “Survival (percent of live animals)” value (LR.4 lymphoma; LR.4 + IMMP, week 13) was 16%. The “Survival (percent of live animals)” value (LR.4 lymphoma; LR.4 + IMMP, week 14) was 0%, the “Decrease of tumor growth” value (LR.4 lymphoma; last two weeks) was “about 33%” and the “Gain in survival at 50%” value (LR.4 lymphoma; mouse, in vivo) was “greater than 4 weeks”. The “Time all animals kept alive longer than the untreated group” value (LR.4 lymphoma; mouse, in vivo) was 5 weeks.

From patent US20150132328A1 (priority 2011, published 2015)
